Measurements from patent US8536160B2, “Azaheterocyclyl derivatives of androstanes and androstenes as medicaments for cardiovascular disorders” (priority 2006, dated 2013).
Counter-ions that a name gives are not always drawn. Like-named read-outs stand apart in the source and are kept apart here.

Legend:
[1] = target: Dog Kidney Na+, K+-ATPase (Canis lupus familiaris, UniProt P50997); assay: Inhibition of the enzymatic activity of purified Na+,K+-ATPase (hydrolysis of 32P-ATP); assay type: biochemical
anesthetized guinea-pig = assay: Inotropic effect and lethal dose, slow intravenous infusion in anesthetized guinea-pig; assay type: in vivo; design: Maximum dose infused: unit not given here; conditions: for Emax / ED80 / ED (max): Cavia porcellus, iv, 1.5 h; for Emax: maximum increase in contractile force, read-out: Emax % increase in +dP/dTmax; for ED80: read-out: ED80 (inotropic potency, dose increasing +dP/dTmax by 80%); for ED (max): read-out: EDmax (dose inducing maximum positive inotropic effect); for % decrease from Emax after 20 min from the end of the infusion: duration of the inotropic effect; for Maximum dose infused: maximum dose infused in the survived animals
[2] = dog kidney enzyme, hydrolysis of 32P-ATP in presence and absence of compound, read-out: Na+, K+-ATPase Inhibition IC50
[3] = read-out: Na+, K+-ATPase Inhibition IC50
[4] = slow i.v. infusion over 90 minutes, anesthetized guinea-pig
[5] = slow i.v. infusion over 90 minutes

CC12CCC3C(CC(O)C4CC(=NOC5CCNC5)CCC43C)C1CCC2O (mixture of isomers) [I-do, (E,Z) 3-[3-(R)-Pyrrolidinyl]oxyiminoandrostane-6α,17β-diol hydrochloride]
IC50 ([1]; Na+, K+-ATPase Inhibition IC50): 0.49 µM

CON=C1CC2C3CCC(=O)C3(C)CCC2C2(C)CCC(=NOC3CCN(C)C3)CC12 (mixture of isomers) [I-bg, (E,Z) 3-[3′-(R)-(1-Methyl)pyrrolidinyl]oxyimino-(E)-6-methoxyiminoandrostane-17-one hydrochloride]
IC50 [1, 2]: 5.7 µM

CC12CCC3C(CC(=O)C4CC(C=CC5CCNCC5)CCC43C)C1CCC2=O (stereo not drawn) [I-dg, 3α-[2-(Pyperidin-4-yl)-(Z)-vinyl]androstane-6,17-dione formate]
IC50 [1, 2]: 0.89 µM

CC12CCC3C(CC(O[N+](=O)[O-])C4CC(=NOC5CCNC5)CCC43C)C1CCC2=O (mixture of isomers) [I-ap, (E,Z) 3-[3-(R)-Pyrrolidinyl]oxyimino-17-oxoandrostane-6α-yl nitrate hydrochloride]
IC50 [1, 2]: 0.38 µM

C[C@]12CC/C(=N\OC3CCNCC3)CC1C(=O)C[C@@H]1[C@@H]2CC[C@]2(C)C(=O)CC[C@@H]12 (stereo partly shown) [I-aa, (E) 3-(4-Piperidyl)oxyiminoandrostane-6,17-dione hydrochloride]
IC50 ([1]; Na+, K+-ATPase Inhibition IC50): 4.1 µM

CC12CCC3C(CC(=O)C4CC(=NOCC5CCCN5)CCC43C)C1CCC2=O (mixture of isomers) [I-ai, hydrochloride]
IC50 ([1]; Na+, K+-ATPase Inhibition IC50): 11 µM

COC(=O)[C@@H]1CC2C/C(=N/O[C@@H]3CCNC3)CC[C@]2(C)[C@H]2CC[C@]3(C)C(=O)CC[C@H]3[C@H]12 (stereo partly drawn) [I-cq, (E) 3-[3′-(R)-Pyrrolidinyl]oxyimino-7α-methoxycarbonylandrostane-17-one hydrochloride]
IC50 [1, 3]: 0.96 µM

C[C@H]1O[C@@H](O[C@H]2[C@@H](O)C[C@H](O[C@H]3[C@@H](O)C[C@H](O[C@H]4CC[C@@]5(C)[C@H](CC[C@@H]6[C@@H]5C[C@@H](O)[C@]5(C)[C@@H](C7=CC(=O)OC7)CC[C@]65O)C4)O[C@@H]3C)O[C@@H]2C)C[C@H](O)[C@@H]1O [digoxin, reference compound]
Emax (anesthetized guinea-pig; [4]): 158%
ED80 (anesthetized guinea-pig; [4]): 0.29 µmol/kg
ED (max) (anesthetized guinea-pig; [4]): 0.65 µmol/kg
% decrease from Emax after 20 min from the end of the infusion (anesthetized guinea-pig; anesthetized guinea-pig): 100%
Maximum dose infused (anesthetized guinea-pig; [5]): 1.16

CO/N=C1\C[C@H]2[C@@H]3CCC(=O)[C@@]3(C)CC[C@@H]2[C@@]2(C)CC/C(=N\O[C@H]3CCN(C)C3)C[C@]12O [I-by, (E) 3-[3′(S)-(1-Methyl)-pyrrolidinyl]oxyimino)-5α-hydroxy-6-(E)-methoxyiminoandrostane-17-one fumarate]
IC50 [1, 2]: 12 µM

C[C@]12CC[C@@H](/C=C\[C@@H]3CCNC3)CC1C(=O)C[C@@H]1[C@@H]2CC[C@]2(C)C(=O)CC[C@@H]12 (stereo partly drawn) [I-de, 3α-[2-(Pyrrolidin-3-(S)-yl)-(Z)-vinyl]androstane-6,17-dione formate]
IC50 ([1]; Na+, K+-ATPase Inhibition IC50): 0.39 µM

CON=C1CC2C3CCC(=O)C3(C)CCC2C2(C)CCC(=NOC3CCN(C)C3)CC12O (single isomer, unassigned) [I-ca]
IC50 [1, 2]: 6 µM

CC12CCC3C(C(O)C(CO)C4CC(=NOC5CCNC5)CCC43C)C1CCC2=O (single isomer, unassigned) [I-dl, hydrochloride]
IC50 ([1]; Na+, K+-ATPase Inhibition IC50): 0.17 µM

C[C@]12CC[C@@H](SC3CCNC3)CC1C(=O)C[C@@H]1[C@@H]2CC[C@]2(C)C(=O)CC[C@@H]12 (mixture of isomers) [I-dc, 3α-[3-(RS)-Pyrrolidinylthio]androstane-6,17-dione fumarate]
IC50 [1, 3]: 95 µM

3β-(2-(R,S)-piperazinylcarbonyloxy)androstane-6,7-dione dihydrochloride [I-da]
IC50 [1, 3]: 68 µM

CC12CCC3C(C(=O)CC4CC(=NOC5CCNC5)CCC43C)C1CCC2=O (single isomer, unassigned) [I-cc]
IC50 ([1]; Na+, K+-ATPase Inhibition IC50): 0.57 µM

COC1CC2CC(=NOC3CCNC3)CCC2(C)C2CCC3(C)C(=O)CCC3C12 (mixture of isomers) [I-dn, (E,Z) 3-[3-(R)-Pyrrolidinyl]oxyimino-7α-methoxyandrostane-17-one fumarate]
IC50 [1, 2]: 5.9 µM

CN1CCC(ON=C2CCC3(C)C(C2)C(CO)C(=O)C2C4CCC(=O)C4(C)CCC23)C1 (mixture of isomers) [I-ct, (E,Z) 3-[3′-(R)-(1-Methyl)pyrrolidinyl]oxyimino-6α-hydroxymethylandrostane-7,17-dione fumarate]
IC50 [1, 2]: 0.27 µM

CN1CC[C@H](O/N=C2\CC[C@@]3(C)C(C2)[C@@H](CO)C(=O)[C@@H]2[C@@H]3CC[C@]3(C)C(=O)CC[C@@H]23)C1 (stereo partly drawn) [I-cu, (E,Z) 3-[3′-(S)-(1-Methyl)-pyrrolidinyl]oxyimino-6α-hydroxymethylandrostane-7,17-dione fumarate]
IC50 [1, 3]: 2.6 µM

C[C@]12CC/C(=N\OC3CCNC3)CC1C(=O)C[C@@H]1[C@@H]2CC[C@]2(C)C(=O)CC[C@@H]12 (mixture of isomers) [I-ac, (E) 3-[3-(RS)-Pyrrolidinyl]oxyiminoandrostane-6,17-dione hydrochloride]
IC50 ([1]; Na+, K+-ATPase Inhibition IC50): 0.11 µM

CC12CCC3C(CC(=O)C4CC(=NOC5CCCNC5)CCC43C)C1CCC2=O (mixture of isomers) [I-aj, (E) 3-[3′-(R,S)-Piperidinyl]oxyiminoandrostane-6,7-dione hydrochloride]
IC50 ([1]; Na+, K+-ATPase Inhibition IC50): 33 µM

C[C@]12CC[C@H](OC(=O)C3CCNCC3)CC1C(=O)C[C@@H]1[C@@H]2CC[C@]2(C)C(=O)CC[C@@H]12 (stereo partly drawn) [I-cw, 3β-(4-Piperidinylcarbonyloxy)androstane-6,17-dione hydrochloride]
IC50 ([1]; Na+, K+-ATPase Inhibition IC50): 11 µM

3α-[2-(Pyrrolidin-3-(R)-yl)-(Z)-vinyl]androstane-6,7-dione formate [I-df]
IC50 [1, 3]: 0.36 µM

CN1CCC(ON=C2CCC3(C)C(C2)C(=O)CC2C4CCC(=O)C4(C)CCC23)C1 (single isomer, unassigned) [I-ak, hydrochloride]
IC50 ([1]; Na+, K+-ATPase Inhibition IC50): 41 µM

C[C@H]1C[C@@H]2[C@H](CC[C@]3(C)C(=O)CC[C@@H]23)[C@@]2(C)CC/C(=N/O[C@@H]3CCNC3)CC12 (stereo partly drawn) [I-ax, (Z) 3-[3-(R)-Pyrrolidinyl]oxyimino-6α-methylandrostane-17-one hydrochloride]
IC50 ([1]; Na+, K+-ATPase Inhibition IC50): 0.26 µM

CON=C1CC2CC(=NOC3CCNC3)CCC2(C)C2CCC3(C)C(=O)CCC3C12 (mixture of isomers) [I-ce, (E,Z) 3-[3-(R)-Pyrrolidinyl]oxyimino-7(E)-methoxyiminoandrostan-17-one fumarate]
IC50 [1, 2]: 3 µM

CON=C1CC2C3CCC(=O)C3(C)CCC2C2(C)CCC(=NOC3CCNC3)CC12O (single isomer, unassigned) [I-bv]
IC50 [1, 2]: 0.15 µM

CC12CCC3C(CC4(CC4)C4CC(=NOC5CCNC5)CCC34C)C1CCC2=O (mixture of isomers) [I-ba, (Z,E) 3-(3-(R)-Pyrrolidinyloxyimino)-6-(spirocyclopropane)androstane-17-one hydrochloride]
IC50 [1, 2]: 0.22 µM

C[C@@H]1CC2CC(=NO[C@@H]3CCNC3)CC[C@]2(C)[C@H]2CC[C@]3(C)C(=O)CC[C@H]3[C@H]12 (stereo partly drawn) [I-ck, (E,Z) 3-[3′-(R)-Pyrrolidinyl]oxyimino-7α-methylandrostane-17-one hydrochloride]
IC50 [1, 3]: 0.21 µM

CC12CCC3C(CC(=O)C4CC(=NOCC5CCCN5)CCC43C)C1CCC2=O (mixture of isomers) [I-ah, hydrochloride]
IC50 ([1]; Na+, K+-ATPase Inhibition IC50): 23 µM

C=C1C[C@H]2[C@@H]3CCC(=O)[C@@]3(C)CC[C@@H]2[C@@]2(C)CC/C(=N/O[C@@H]3CCN(C)C3)C[C@]12O [I-bl, (Z) 3-[3′-(R)-(1-Methyl)pyrrolidinyl]oxyimino-5α-hydroxy-6-methyleneandrostane-17-one fumarate]
IC50 ([1]; Na+, K+-ATPase Inhibition IC50): 92 µM

CC12CCC3C(C(NC=O)CC4CC(=NOC5CCNC5)CCC43C)C1CCC2=O (mixture of isomers) [I-cp, (E,Z) 3-[3′-(R)-Pyrrolidinyl]oxyimino-7α-formamidoandrostane-17-one hydrochloride]
IC50 [1, 2]: 4.6 µM

CC1CC2CC(=NOC3CCNC3)CCC2(C)C2CCC3(C)C(=O)CCC3C12 [I-cn, (Z) 3-[3′-(R)-Pyrrolidinyl]oxyimino-7β-methylandrostane-17-one hydrochloride]
IC50 ([1]; Na+, K+-ATPase Inhibition IC50): 0.34 µM

CC12CCC3C(CC(=O)C4CC(OC(=O)C5CCNC5)CCC43C)C1CCC2=O (mixture of isomers) [I-cy, 3β-(3(R,S)-Pirrolidinylcarbonyloxy)androstane-6,17-dione fumarate]
IC50 ([1]; Na+, K+-ATPase Inhibition IC50): 4.2 µM

CC12CCC3C(CC(=O)C4CC(=NOC5CCNC5)CCC43C)C1CCC2=O (single isomer, unassigned) [I-ag, hydrochloride]
IC50 ([1]; Na+, K+-ATPase Inhibition IC50): 0.11 µM

C=C1CC2C3CCC(=O)C3(C)CCC2C2(C)CCC(=NOC3CCNC3)CC12O (racemic) [I-bk, (E,Z) 3-[3′-(S)-Pyrrolidinyl]oxyimino-5α-hydroxy-6-methylene-androstane-17-one fumarate]
IC50 ([1]; Na+, K+-ATPase Inhibition IC50): 0.48 µM

C[C@]12CC[C@H]3[C@@H](C/C(=N\O)[C@@]4(O)CC(=NO[C@H]5CCNC5)CC[C@]34C)[C@@H]1CCC2=O (mixture of isomers) [I-bq, (E,Z) 3-[3-(S)-Pyrrolidinyl]oxyimino-5α-hydroxy-6-(E)-hydroxyiminoandrostane-17-one hydrochloride]
Emax (anesthetized guinea-pig; [4]): 380%
ED80 (anesthetized guinea-pig; [4]): 0.59 µmol/kg
ED (max) (anesthetized guinea-pig; [4]): 3.72 µmol/kg
Maximum dose infused (anesthetized guinea-pig; [5]): 18.7

CC12CCC3C(CC(=NO)C4CC(=NOC5CCNC5)CCC43C)C1CCC2=O (mixture of isomers) [I-av, (E,Z) 3-[3-(R)-Pyrrolidinyl]oxyimino-6(E)-hydroxyiminoandrostan-17-one hydrochloride]
Emax (anesthetized guinea-pig; [4]): 144%
ED80 (anesthetized guinea-pig; [4]): 1.49 µmol/kg
ED (max) (anesthetized guinea-pig; [4]): 4.3 µmol/kg
% decrease from Emax after 20 min from the end of the infusion (anesthetized guinea-pig; anesthetized guinea-pig): 100%
Dead/treated (anesthetized guinea-pig; [4]): 0/3
Maximum dose infused (anesthetized guinea-pig; [5]): 6.3
